Measured values from the supplement of paper PMC10307832.

What was measured:
Experiment in all cases: relative viability (nuclei count vs DMSO), 5 days (fraction); higher = more cells survive
SGI-1776 + Pemetrexed = compound: CN1CCC(CNc2ccc3ncc(-c4cccc(OC(F)(F)F)c4)n3n2)CC1 [SGI-1776] + Nc1nc2[nH]cc(CCc3ccc(C(=O)N[C@@H](CCC(=O)O)C(=O)O)cc3)c2c(=O)[nH]1 [Pemetrexed] (partner 0.2 µM)
Procedure, shortened: (§1)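 Lung cancer cell lines in 1536-well plates got either a single drug or a fixed anchor-drug dose together with five library-drug doses (not always all listed) in √10 steps, by pin tool, on the day after seeding. Nuclei were counted after 5 days, and relative viability is the treated-to-vehicle ratio of nuclei counts. Values are medians of duplicate plates.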

Entinostat + Bortezomib = compound: Nc1ccccc1NC(=O)c1ccc(CNC(=O)OCc2cccnc2)cc1 [Entinostat] + CC(C)C[C@H](NC(=O)[C@H](Cc1ccccc1)NC(=O)c1cnccn1)B(O)O [Bortezomib] (partner 0.002 µM)
Procedure, shortened: as §1

Entinostat + Lapatinib = compound: Nc1ccccc1NC(=O)c1ccc(CNC(=O)OCc2cccnc2)cc1 [Entinostat] + CS(=O)(=O)CCNCc1ccc(-c2ccc3ncnc(Nc4ccc(OCc5cccc(F)c5)c(Cl)c4)c3c2)o1 [Lapatinib] (partner 2 µM)
Procedure, shortened: as §1

Entinostat + Tozasertib = compound: Nc1ccccc1NC(=O)c1ccc(CNC(=O)OCc2cccnc2)cc1 [Entinostat] + Cc1cc(Nc2cc(N3CCN(C)CC3)nc(Sc3ccc(NC(=O)C4CC4)cc3)n2)n[nH]1 [Tozasertib] (partner 0.1 µM)
Procedure, shortened: as §1

Row | Cell Line | relative viability (SGI-1776 + Pemetrexed; first compound 0.08 µM) | relative viability (SGI-1776 + Pemetrexed; first compound 0.8 µM) | relative viability (SGI-1776 + Pemetrexed; first compound 2.53 µM) | relative viability (SGI-1776 + Pemetrexed; first compound 8 µM) | relative viability (Entinostat + Bortezomib; first compound 0.02 µM) | relative viability (Entinostat + Bortezomib; first compound 0.06325 µM) | relative viability (Entinostat + Bortezomib; first compound 0.2 µM) | relative viability (Entinostat + Bortezomib; first compound 0.6325 µM) | relative viability (Entinostat + Bortezomib; first compound 2 µM) | relative viability (Entinostat + Lapatinib; first compound 0.02 µM) | relative viability (Entinostat + Lapatinib; first compound 0.06325 µM) | relative viability (Entinostat + Lapatinib; first compound 0.2 µM) | relative viability (Entinostat + Lapatinib; first compound 0.6325 µM) | relative viability (Entinostat + Lapatinib; first compound 2 µM) | relative viability (Entinostat + Tozasertib; first compound 0.02 µM) | relative viability (Entinostat + Tozasertib; first compound 0.06325 µM) | relative viability (Entinostat + Tozasertib; first compound 0.2 µM) | relative viability (Entinostat + Tozasertib; first compound 0.6325 µM) | relative viability (Entinostat + Tozasertib; first compound 2 µM)
1 | NCI-H2347 | 0.471 | 0.419 | 0.469 | 0.338 | 0.969 | 1.01 | 0.557 | 0.318 | 0.262 | 1.05 | 0.983 | 0.784 | 0.502 | 0.369 | 0.355 | 0.382 | 0.345 | 0.175 | 0.18
2 | NCI-H3122 | 0.202 | 0.201 | 0.198 | 0.193 | 0.951 | 1.07 | 1.06 | 0.869 | 1.01 | 1.02 | 1.07 | 1.09 | 0.917 | 0.893 | 0.334 | 0.36 | 0.479 | 0.275 | 0.102
3 | NCI-H2085 | 0.936 | 1.06 | 0.971 | 0.788 | 1.03 | 1.12 | 1.04 | 0.683 | 0.604 | 0.748 | 0.825 | 0.744 | 0.545 | 0.443 | 0.788 | 0.618 | 0.612 | 0.431 | 0.365
4 | PC-14 | 0.14 | 0.13 | 0.117 | 0.101 | 0.833 | 0.949 | 0.909 | 0.331 | 0.128 | 0.293 | 0.29 | 0.146 | 0.151 | 0.105 | 0.56 | 0.629 | 0.325 | 0.104 | 0.0609
5 | NCI-H1355 | 1.09 | 1.07 | 1.01 | 1.03 | 1.19 | 1.16 | 0.951 | 0.725 | 0.603 | 1.03 | 0.978 | 0.798 | 0.568 | 0.513 | 0.525 | 0.484 | 0.412 | 0.303 | 0.275
6 | NCI-H1650 | 0.348 | 0.367 | 0.36 | 0.296 | 0.194 | 0.226 | 0.2 | 0.214 | 0.214 | 0.79 | 0.897 | 0.888 | 0.521 | 0.329 | 0.336 | 0.366 | 0.332 | 0.223 | 0.204
7 | NCI-H1755 | 0.465 | 0.443 | 0.425 | 0.372 | 0.932 | 0.956 | 0.9 | 0.534 | 0.321 | 1.02 | 1.02 | 0.95 | 0.532 | 0.264 | 0.603 | 0.505 | 0.464 | 0.361 | 0.357
8 | NCI-H1651 | 0.672 | 0.736 | 0.604 | 0.456 | 0.958 | 0.923 | 0.921 | 0.926 | 0.84 | 0.816 | 0.905 | 0.925 | 0.726 | 0.217 | 0.619 | 0.705 | 0.584 | 0.333 | 0.237
9 | NCI-H647 | 0.172 | 0.151 | 0.166 | 0.145 | 1.02 | 1.01 | 0.869 | 0.216 | 0.0717 | 0.936 | 0.868 | 0.996 | 0.322 | 0.101 | 0.32 | 0.214 | 0.228 | 0.0707 | 0.0371
10 | HCC-15 | 0.229 | 0.226 | 0.223 | 0.197 | 1.02 | 0.945 | 0.876 | 0.403 | 0.413 | 0.866 | 0.779 | 0.726 | 0.345 | 0.288 | 0.306 | 0.346 | 0.258 | 0.0932 | 0.0635
11 | NCI-H838 | 0.232 | 0.29 | 0.258 | 0.189 | 0.959 | 1.21 | 0.947 | 0.634 | 0.385 | 1.13 | 1.12 | 0.983 | 0.696 | 0.255 | 0.287 | 0.261 | 0.239 | 0.146 | 0.127
12 | HOP-62 | 0.306 | 0.363 | 0.325 | 0.31 | 0.804 | 0.591 | 0.763 | 0.398 | 0.17 | 1.12 | 0.994 | 0.907 | 0.532 | 0.323 | 0.355 | 0.312 | 0.304 | 0.228 | 0.152
13 | NCI-H322M | 0.648 | 0.65 | 0.59 | 0.504 | 1.33 | 1.33 | 1.31 | 1.27 | 1.3 | 0.643 | 0.612 | 0.623 | 0.647 | 0.621 | 0.505 | 0.555 | 0.519 | 0.461 | 0.448
14 | NCI-H650 | 1.02 | 0.91 | 0.949 | 0.841 | 1.02 | 0.916 | 0.773 | 0.426 | 0.171 | 1.02 | 1.24 | 0.976 | 0.543 | 0.199 | 0.739 | 0.652 | 0.555 | 0.482 | 0.212
15 | NCI-H661 | 0.938 | 0.89 | 0.917 | 0.889 | 0.956 | 0.883 | 0.861 | 0.781 | 0.7 | 0.573 | 0.587 | 0.8 | 0.661 | 0.476 | 0.339 | 0.332 | 0.282 | 0.334 | 0.396
16 | NCI-H1734 | 0.412 | 0.371 | 0.399 | 0.377 | 0.895 | 1.1 | 1.06 | 0.753 | 0.472 | 1.16 | 1.11 | 1.05 | 0.787 | 0.481 | 0.25 | 0.296 | 0.267 | 0.215 | 0.22
17 | EKVX | 0.396 | 0.477 | 0.395 | 0.371 | 1.1 | 0.992 | 0.999 | 0.853 | 0.445 | 0.254 | 0.219 | 0.209 | 0.161 | 0.153 | 0.384 | 0.414 | 0.323 | 0.234 | 0.192
